Results on one compound are retold here after patent US11324709B2, “Fatty acid amides and uses thereof in the treatment of addiction disorder and addiction related conditions” (Yissum Research Development Company of The Hebrew …, priority 2017, dated 2022).

Read-outs that look alike come from different tables or passages of the source.

As a reminder, the melting point is the temperature, or range, at which the solid turns liquid.

For series [1], the system named is ICR mice. Kind of series: Cannabinoid tetrad behavioral assessment. It counts as in vivo, mouse. As to conditions: i.p. On the procedure: (§1) Male C57BL/6 mice (Charles River, Italy) weighing 18-20 g were used for the mild TBI Weight Drop (WD) model. Mice were housed three per cage under controlled illumination (12 h light/dark cycle; light on 6:00 A.M.) and standard environmental conditions (ambient temperature 20-22° C., humidity 55-60%) for at least 1 week before the beginning of experiments. Animal chow and tap water were available ad libitum. Male ICR mice (6-8 weeks old; Harlan, Indianapolis, Ind.) with a body mass of 27-32 g served as subjects in all in vivo pharmacology experiments. Mice were group-housed (four per cage) on a 12/12 light/dark cycle (lights on at 0600 h) and given food and water ad libitum. All animal protocols were approved by the Virginia Commonwealth University Institutional Animal Care and Use Committee, were in accordance with the National Institutes of Health Guide for the Care and Use of Laboratory Animals (Institute of Laboratory Animal Resources, 2011), and by the Animal Ethics Committee of The Second University of Naples, in compliance with Italian (D.L. 116/92) and European Commission (O.J. of E.C. L358/1 18/12/86) regulations on the protection of laboratory animals. All efforts were made to reduce both animal numbers and suffering during the experiments.
[^2H]8AEA, [^2H]52-AG, [^2H]4 PEA, [^2H]4 OEA, [^2H]8 N-arachidonoyldopamine (NADA), [^2H]8AraSer and [^2H]8AraGly were purchased from Cayman Chemicals (MI, USA). OlGly was synthetized in the Mechoulam laboratory and CP55,940 ((−)-cis-3-[2-hydroxy-4-(1,1-dimethylheptyl)phenyl]-trans-4-(3-hydroxypropyl)cyclohexanol) and morphine sulfate were generously provided by NIDA (Rockville, Md.). OlGly and CP55,940 were dissolved in a vehicle solution consisting of ethanol (5% of total volume), alkamuls-620 (Sanofi-Aventis, Bridgewater, N.J.) (5% of total volume), and saline (0.9% NaCl) (90% of total volume). Oleoyl glycine and CP55,940 were given via the intraperitoneal (i.p.) route of administration. (−)-Nicotine hydrogen tartrate [(−)-1-methyl-2-(3-pyridyl)pyrrolidine (+)-bitartrate] and mecamylamine HCl were purchased from Sigma-Aldrich Inc. (St. Louis, Mo., USA). Morphine sulfate [morphine hemi[sulfate pentahydrate]] Nicotine and mecamylamine (2 mg/kg) were dissolved in physiological saline and given via the subcutaneous (s.c.) route of administration in a volume of 10 ml/kg. For the nicotine CPP study, 0.5 mg/kg nicotine dose was used because this dose reliably produces significant CPP in ICR mouse (18). Morphine CPP was performed with 10 mg/kg (s.c.) as recently described (19). For nicotine withdrawal studies, 24 mg/kg/day nicotine or saline was continuously perfused for 14 days using s.c. osmotic minipumps (model 2000; Alzet Corporation, Cupertino, Calif.) that were implanted under isoflurane anesthesia. This prolonged nicotine administration regimen reliably produces significant withdrawal syndrome in the three behavioral paradigms used here.
Mice were acclimated to the test environment for at least 1 h prior to testing for tetrad components: spontaneous activity, catalepsy, antinociception, and hypothermia (7-9). In the locomotor studies, subjects were administered vehicle or drug and 5 min later were placed into clear acrylic boxes (approx. 44.5 cm×22.25 cm×20.0 cm) contained within sound-attenuating cabinets equipped with an LED light source and fans for general air circulation and creation of white noise. The distance traveled (cm) and time spent immobile (s) for each mouse were collected and recorded for 10 min using Fire-i™ digital cameras purchased from Unibrain (San Ramon, Calif., USA) and ANY-maze™ video tracking software purchased from Stoelting Company (Wood Dale, Ill., USA). Mice were assessed for baseline tail withdrawal latencies and body temperature, given an intraperitoneal (i.p.) injection of vehicle or drug (OlGly), and 30 min later assessed in the following order: catalepsy, tail withdrawal test, and body temperature. […]

In series [2] the test system is Sprague-Dawley rats. Kind of series: Establishment of naloxone precipitated MWD-induced conditioned place aversion (Experiment 2). It is filed as in vivo, rat. On the procedure:
Rats (n=22) received two 3-day conditioning cycles in order to attain a naloxone precipitated MWD-induced place avoidance. On Day 1, the floor opposite to the assigned drug floor was paired with a s.c. saline injection. Ten minutes after a saline injection, the rats were placed into the conditioning box with the assigned saline-paired floor for 20 minutes while their locomotion was tracked with Ethovision. On Day 2, the rats received a high dose of morphine (20 mg/kg) s.c., 24 h after the saline conditioning trial the previous day. After the injection, they were placed in an empty shoebox cage and monitored for signs of respiratory distress and stimulated when necessary until they recovered and were returned to the home cage. On Day 3, 24 h post morphine injections, the rats were injected with either VEH (n=12) or OlGly (n=12) 10 min prior to receiving an s.c. injection of naloxone. Ten min later they were placed into the conditioning box with the assigned naloxone-paired floor for 20 minutes while their locomotion was tracked using Ethovision. Four days later, all rats underwent a second 3-day conditioning cycle. Five days following the last naloxone trial, a 10 min drug-free test trial was performed. The test trial consisted of the same procedures as the pre-test trial, but rats were given a s.c. saline injection 10 min prior to the test. […]

The subject of another series is mice. The note with it: cited from earlier work.
The test system of series [3] is ICR mice. Put plainly: Morphine CPP in mice. It counts as in vivo, mouse. The note with it: OlGly 30 mg/kg i.p., morphine 10 mg/kg s.c. for 3 days. How it is done:
as §1, with “the experiments. […]” for “the experiments.”

The next series has as its system nicotine-dependent mice. The note with it: cited from earlier work.
The subject of series [4] is Sprague-Dawley rats. Put plainly: Potential of OlGly to produce a CPP or CPA (place conditioning, Experiment 1). It is filed as in vivo, rat. The note with it: 5 mg/kg ip. On the procedure:
Rats (n=12) received two conditioning trials with oleoyl glycine. On each trial they received intraperitoneal (ip) injections of 5 mg/kg oleoyl glycine or VEH (24 hr apart; counterbalanced order) 20 minutes prior to placement in the conditioning box lined with the grid or hole floor (counterbalanced) for 20 minutes.

The test system of series [5] is Sprague-Dawley rats.

Turning to `CCCCCCCC/C=C\CCCCCCCC(=O)NCC(=O)O` [OlGly, oleoyl glycine], the melting point was 93 to 94 °C (dec.). Moreover, the “cataleptic responses (bar test)” value with ICR mice [1] was “did not elicit cataleptic responses”. For the same compound, the “antinociception (tail immersion)” value in the series with ICR mice [1] (FIG. 5A) is “did not produce”. The hypothermia entry in the series with ICR mice [1] (FIG. 5B) is listed as “did not produce”. Also, the “motor behavior: distance traveled” value with ICR mice [1] (FIG. 5C) is listed as “did not produce”. The “motor behavior: speed” value in the series with ICR mice [1] (FIG. 5D) is “did not produce”. In the series with ICR mice [1] (FIG. 5E), the “motor behavior: immobility time” value is “did not produce”. Moreover, in the series on Sprague-Dawley rats [2] (5 mg/kg OlGly 10 min prior to naloxone, drug by floor interaction p=0.017), the “establishment of the naloxone precipitated MWD-induced CPA” value is recorded as “significantly interfered”. Besides, the “activity during the conditioning trials” value in the series on Sprague-Dawley rats [2] (pretreatment with 5 mg/kg OlGly, naloxone conditioning trials) is “did not modify activity”. Besides, in the series on mice, the nicotine-induced place preference entry is given as “interfered” and the “place preference or place aversion produced by OlGly itself” value is “neither a place preference nor a place aversion”. In addition, the “expression of morphine CPP” value in the series with ICR mice [3] was “did not attenuate”. In addition, in the series with nicotine-dependent mice, the precipitated withdrawal responses result is listed as “reduced” and the “withdrawal induced place aversion” value is given as “reduced”. Further, the “motoric effects during conditioning (activity measure) compared to VEH” value in the series on Sprague-Dawley rats [4] is “no motoric effects”. The “time spent on the oleoyl glycine paired floor (mean)” value in the series with Sprague-Dawley rats [4] (10 min drug-free test trial, VEH paired floor 232.16 sec) came to 299.00 s. For the same compound, the “preference or aversion for the drug paired floor” value in the series with Sprague-Dawley rats [4] (two conditioning trials, drug-free test trial) is listed as “did not produce a significant preference or aversion”. In addition, the “establishment of a morphine-induced place preference” value with Sprague-Dawley rats [5] (5 mg/kg OlGly i.p. 10 min prior to morphine 10 mg/kg s.c.) was “did not modify”. For the same compound, the “establishment of a morphine-induced place preference” value in the series with Sprague-Dawley rats [5] (30 mg/kg OlGly i.p. 10 min prior to morphine 10 mg/kg s.c.) is “did not modify”.
